Test [1] deals with Proteus vulgaris XI9H ATCC 881. In words: MIC, two-fold dilution microtiter, P. vulgaris. The class given is cell-based. The following applies: Proteus vulgaris, ATCC881.
The test system of a further test is S. aureus TOUR L 1282. Put plainly: MIC, two-fold dilution microtiter, rifampicin resistant S. aureus TOUR L 1282. The format is cell-based. As to conditions: Staphylococcus aureus, TOURL1282, rifampicin resistant strain.
In test [2] the test system is Klebsiella pneumoniae ISM. Put plainly: MIC, two-fold dilution microtiter, K. pneumoniae ISM. The class given is cell-based. The following applies: Klebsiella pneumoniae.
Another test deals with S. pneumoniae UC 41. Put plainly: MIC, two-fold dilution microtiter, S. pneumoniae UC 41. The class given is cell-based. As to conditions: Streptococcus pneumoniae, UC41, Todd-Hewitt broth, 18-24 h, 37° C, read-out: MIC.
The subject of test [3] is Staphylococcus aureus ATCC 6538. In words: MIC, two-fold dilution microtiter, S. aureus ATCC 6538. The format is cell-based. As to conditions: Staphylococcus aureus, ATCC6538; S. aureus ATCC 6538; Iso-Sensitest broth; 18-24 h, 37° C; read-out: MIC.
The test system of test [4] is Pseudomonas aeruginosa ATCC 10145. Put plainly: MIC, two-fold dilution microtiter, P. aeruginosa ATCC 10145. The class given is cell-based. The following applies: Pseudomonas aeruginosa, ATCC10145.
The subject of test [5] is Mycobacterium tuberculosis H37RV ATCC 9360. In words: MIC, M. tuberculosis H37RV, Kirschner medium. The format is cell-based. As to conditions: Mycobacterium tuberculosis, 168 h, 10% horse serum, 7 days, 37° C, read-out: MIC. How it is done:
(§1) The minimum inhibitory concentration (MIC) of representative compounds of the invention was determined using two-fold dilution method in microtiter system. The media used were: Todd-Hewitt broth (Difco) for steptococci; Iso-Sensitest broth (Oxoid) for staphylococci and gram-negative bacteria. The final inoculum was about 10^4 cfμ/ml. […] For M. tuberculosis H37 RV the inoculum consisted of 0.5-1% of a 7-9 day culture in Dubos medium. The tests were carried out in Kirschner medium supplemented with 10% horse serum. Observations were made after 7-days incubation at 37° C.

In test [6] the test system is S. aureus TOUR L 165. In words: MIC, two-fold dilution microtiter, S. aureus TOUR L 165. The format is cell-based, Staphylococcus aureus. The following applies: Staphylococcus aureus, TOURL165, S. aureus TOUR L 165, read-out: MIC.
A further test relates to S. faecalis ATCC 7080. In words: MIC, two-fold dilution microtiter, S. faecalis ATCC 7080. The format is cell-based. The following applies: Enterococcus faecalis, ATCC7080, 18-24 h, 37° C, read-out: MIC.
For test [7], the system named is S. aureus tour L 165. In words: experimental septicemia in mice (S. aureus). The format is in vivo. The following applies: Staphylococcus aureus, once daily for three days, survival on 10th day. How it is done:
The antimicrobial activity of the compounds of the invention is also confirmed in "in vivo" tests. The animals (groups of five mice) were infected by intraperitoneal injection of 16-hour broth culture of S. aureus tour L 165. Inocula were adjusted so that untreated animals died of septicemia within 48 hours. Animals were treated once daily for three days starting immediately after infection. On the 10th day the value for the ED50 in mg/kg/day was calculated by the method of […]-KARBER (Finney, D. J., Statistical method in biological assay, page 524. C. Griffin Ltd., London, 1952), on the basis of the percentage of surviving animals at each dose.

For test [8], the system named is Escherichia coli SKF 12140. Put plainly: MIC, two-fold dilution microtiter, E. coli SKF 12140. The format is cell-based. The following applies: Escherichia coli, SKF12140, Iso-Sensitest broth, 18-24 h, 37° C, read-out: MIC.
In test [9] the test system is Streptococcus pyogenes C203. In words: MIC, two-fold dilution microtiter, S. pyogenes C203. As to conditions: Streptococcus pyogenes, Todd-Hewitt broth, 18-24 h, 37° C, read-out: MIC. The format is cell-based. How it is done:
as §1

[10] abbreviates: P. vulgaris XI9H ATCC 881, Iso-Sensitest broth, 18-24 h, 37° C, read-out: MIC.
[11] abbreviates: P. aeruginosa ATCC 10145, Iso-Sensitest broth, 18-24 h, 37° C, read-out: MIC.
Where [12] appears, read: Iso-Sensitest broth, 18-24 h, 37° C.
The mark [13] stands for this setting: supplemented with 30% bovine serum.
[14] abbreviates: K. pneumoniae ISM, Iso-Sensitest broth, 18-24 h, 37° C, read-out: MIC.

In brackets after ≈: the same amount, converted by molar mass. Like-named read-outs stand apart in the source and are kept apart here. Some results are limits rather than exact numbers.

The term MIC denotes the least concentration at which growth counts as inhibited. As usually defined, the ED50 is the dose at which the effect has come halfway, by size or by number of responders. Consider `COC1C=COC2(C)Oc3c(C)c(O)c4c(O)c(c5sc(N6CCN(c7ccccc7)CC6)nc5c4c3C2=O)NC(=O)C(C)=CC=CC(C)C(O)C(C)C(O)C(C)C(OC(C)=O)C1C` (stereo not shown) [Example 1c, 2'(4"-phenyl-1"-piperazinyl) rifamycin P], for which the MIC in test [1] (setting [10]) is 16 µg/mL (≈ 17.8 µM); against S. aureus TOUR L 1282, > 128 µg/mL; in test [2], > 128 µg/mL; in the test with S. pneumoniae UC 41 it was 0.004 µg/mL (≈ 0.00445 µM); in [3] it was 0.004 µg/mL (≈ 0.00445 µM); in test [4] (setting [11]), 8 µg/mL (≈ 8.9 µM). Further, the MIC turned out to be 1 µg/mL (≈ 1.11 µM) in test [5]; 0.008 µg/mL (≈ 0.0089 µM) in the test on S. aureus TOUR L 165 [6] (setting [12]); 0.016 µg/mL (≈ 0.0178 µM) in the test with S. aureus TOUR L 165 [6] (setting [13]); 1 µg/mL (≈ 1.11 µM) with S. faecalis ATCC 7080; 4 µg/mL (≈ 4.45 µM) in test [8]; 0.032 µg/mL (≈ 0.0356 µM) in test [9]. For the same compound, the ED50 with S. aureus tour L 165 [7] (TOURL165, 240 h, sc) came to 0.63 mg/kg; with S. aureus tour L 165 [7] (TOURL165, po, 240 h, os), 2.5 mg/kg.

Consider `COC1C=COC2(C)Oc3c(C)c(O)c4c(O)c(c5sc(N6CCN(C)CC6)nc5c4c3C2=O)NC(=O)C(C)=CC=CC(C)C(O)C(C)C(O)C(C)C(O)C1C` (stereo not shown) [Example 3b, 25-Desacetyl-2'-(4"-methyl-1-piperazinyl) rifamycin P], for which the MIC in test [1] (setting [10]) is 8 µg/mL (≈ 10.1 µM); against S. aureus TOUR L 1282, > 128 µg/mL; in test [2] (setting [14]), 16 µg/mL (≈ 20.1 µM); with S. pneumoniae UC 41 it was 0.063 µg/mL (≈ 0.0792 µM); in [3], 0.008 µg/mL (≈ 0.0101 µM); in test [4] (setting [11]), 8 µg/mL (≈ 10.1 µM). The MIC in test [5] was 1 µg/mL (≈ 1.26 µM); with S. aureus TOUR L 165 [6] (setting [12]), 0.008 µg/mL (≈ 0.0101 µM); in the test with S. aureus TOUR L 165 [6] (setting [13]), 0.016 µg/mL (≈ 0.0201 µM); with S. faecalis ATCC 7080, 1 µg/mL (≈ 1.26 µM); in test [8], 8 µg/mL (≈ 10.1 µM); in [9] it was 0.063 µg/mL (≈ 0.0792 µM). In addition, the ED50 in the test with S. aureus tour L 165 [7] (TOURL165, 240 h, sc) came to 10 mg/kg; in the test on S. aureus tour L 165 [7] (TOURL165, po, 240 h, os), 13 mg/kg.

On to `COC1C=COC2(C)Oc3c(C)c(O)c4c(O)c(c5sc(N6CCN(c7ccc(Cl)cc7)CC6)nc5c4c3C2=O)NC(=O)C(C)=CC=CC(C)C(O)C(C)C(O)C(C)C(OC(C)=O)C1C` (stereo not shown) [Example 3d, 2'-[4"(4'"-chlorophenyl)-1-piperazinyl]rifamycin P], for which the MIC in test [1] is > 128 µg/mL; with S. aureus TOUR L 1282, > 128 µg/mL; in test [2] it was > 128 µg/mL; in the test on S. pneumoniae UC 41, 0.125 µg/mL (≈ 0.134 µM); in test [3], 0.064 µg/mL (≈ 0.0686 µM); in test [4] it was 128 µg/mL (≈ 137 µM). Also, the MIC was 1 µg/mL (≈ 1.07 µM) in test [5]; 0.064 µg/mL (≈ 0.0686 µM) in the test on S. aureus TOUR L 165 [6] (setting [12]); 0.25 µg/mL (≈ 0.268 µM) with S. aureus TOUR L 165 [6] (setting [13]); 2 µg/mL (≈ 2.14 µM) in the test on S. faecalis ATCC 7080; 1 µg/mL (≈ 1.07 µM) in test [8]; 0.064 µg/mL (≈ 0.0686 µM) in test [9]. Also, the ED50 is 3.3 mg/kg in the test with S. aureus tour L 165 [7] (TOURL165, 240 h, sc) and 3.3 mg/kg with S. aureus tour L 165 [7] (TOURL165, po, 240 h, os).

Consider `COC1C=COC2(C)Oc3c(C)c(O)c4c(O)c(c5sc(N6CCCCC6)nc5c4c3C2=O)NC(=O)C(C)=CC=CC(C)C(O)C(C)C(O)C(C)C(OC(C)=O)C1C` (stereo not shown) [Example 2, 2'-(1"-Piperidinyl) rifamycin P], for which the minimal inhibitory concentration (MIC) in [1] (setting [10]) is 6.25 µg/mL (≈ 7.6 µM); against S. aureus TOUR L 1282, > 100 µg/mL; in test [2] (setting [14]), 25 µg/mL (≈ 30.4 µM); with S. pneumoniae UC 41, 0.05 µg/mL (≈ 0.0608 µM); in test [3] it was 0.003 µg/mL (≈ 0.00365 µM); in test [4] (setting [11]), 6.25 µg/mL (≈ 7.6 µM). The MIC in test [5] was 0.2 µg/mL (≈ 0.243 µM); in the test with S. aureus TOUR L 165 [6] (setting [12]), 0.006 µg/mL (≈ 0.0073 µM); in the test on S. aureus TOUR L 165 [6] (setting [13]) it was 0.2 µg/mL (≈ 0.243 µM); with S. faecalis ATCC 7080, 1.6 µg/mL (≈ 1.95 µM); in [8], 12.5 µg/mL (≈ 15.2 µM); in [9] it was 0.05 µg/mL (≈ 0.0608 µM). Further, the ED50 worked out at 0.16 mg/kg in the test with S. aureus tour L 165 [7] (TOURL165, 240 h, sc) and 0.63 mg/kg in the test with S. aureus tour L 165 [7] (TOURL165, po, 240 h, os).

For the compound `COC1C=COC2(C)Oc3c(C)c(O)c4c(O)c(c5sc(N6CCOCC6)nc5c4c3C2=O)NC(=O)C(C)=CC=CC(C)C(O)C(C)C(O)C(C)C(OC(C)=O)C1C` (stereo not shown) [Example 1b, 2'-(4"-morpholinyl) rifamycin P], the MIC worked out at 8 µg/mL (≈ 9.71 µM) in test [1] (setting [10]); 64 µg/mL (≈ 77.7 µM) with S. aureus TOUR L 1282; 32 µg/mL (≈ 38.8 µM) in test [2] (setting [14]); 0.016 µg/mL (≈ 0.0194 µM) in the test on S. pneumoniae UC 41; 0.001 µg/mL (≈ 0.00121 µM) in test [3]; 16 µg/mL (≈ 19.4 µM) in test [4] (setting [11]). For the same compound, the MIC in test [5] was found to be 2 µg/mL (≈ 2.43 µM); in the test with S. aureus TOUR L 165 [6] (setting [12]) it was 0.002 µg/mL (≈ 0.00243 µM); in the test with S. aureus TOUR L 165 [6] (setting [13]) it was 0.008 µg/mL (≈ 0.00971 µM); in the test with S. faecalis ATCC 7080, 1 µg/mL (≈ 1.21 µM); in test [8] it was 16 µg/mL (≈ 19.4 µM); in [9], 0.032 µg/mL (≈ 0.0388 µM). For the same compound, the ED50 in the test with S. aureus tour L 165 [7] (TOURL165, 240 h, sc) worked out at 0.21 mg/kg; in the test on S. aureus tour L 165 [7] (TOURL165, po, 240 h, os), 0.21 mg/kg.

The values above are taken from patent US4880789A, “2'-Substituted-4-deoxy-thiazolo(5,4-c)-rifamycin SV derivatives” (Gruppo Lepetit S.P.A., priority 1985, dated 1989).
